The text below walks through data of patent US20090099195A1 (ASTRAZENECA AB, priority 2007, published 2009).

The target in assay [1] is T1, rat P2X2/3 (rat P2X3 co-expressed with rat P2X2) (Rattus norvegicus, UniProt P49653+P49654).
T1 sequence (P49654 1-397): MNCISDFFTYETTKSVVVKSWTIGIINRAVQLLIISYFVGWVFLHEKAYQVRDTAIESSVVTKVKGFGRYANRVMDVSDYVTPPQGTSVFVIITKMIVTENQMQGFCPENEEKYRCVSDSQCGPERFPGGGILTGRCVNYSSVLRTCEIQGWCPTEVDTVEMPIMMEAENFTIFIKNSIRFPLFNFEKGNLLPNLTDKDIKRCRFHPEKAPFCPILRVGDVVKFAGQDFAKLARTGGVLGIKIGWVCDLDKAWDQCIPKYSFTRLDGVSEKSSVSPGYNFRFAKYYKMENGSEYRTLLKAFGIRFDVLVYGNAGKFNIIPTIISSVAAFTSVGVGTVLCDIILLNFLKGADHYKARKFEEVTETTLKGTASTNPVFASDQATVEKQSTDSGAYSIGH
T1 sequence (P49653 1-472): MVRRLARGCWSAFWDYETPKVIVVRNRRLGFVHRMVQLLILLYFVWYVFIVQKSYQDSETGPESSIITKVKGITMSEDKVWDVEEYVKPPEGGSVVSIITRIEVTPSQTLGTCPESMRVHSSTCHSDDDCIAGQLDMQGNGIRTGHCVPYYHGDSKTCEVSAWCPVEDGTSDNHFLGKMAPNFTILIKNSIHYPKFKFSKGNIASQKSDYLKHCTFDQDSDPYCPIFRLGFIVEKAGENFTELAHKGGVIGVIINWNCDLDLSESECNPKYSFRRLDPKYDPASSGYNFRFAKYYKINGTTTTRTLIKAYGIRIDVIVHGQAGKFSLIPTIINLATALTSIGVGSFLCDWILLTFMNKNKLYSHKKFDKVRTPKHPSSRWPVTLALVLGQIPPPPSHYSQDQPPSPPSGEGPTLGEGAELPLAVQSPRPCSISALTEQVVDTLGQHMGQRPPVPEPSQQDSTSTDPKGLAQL
Put plainly: rat P2X2/3 FLIPR calcium (Fluo-4) antagonist assay. To be noted: Rat P2X2/3 FLIPR Mean IC50 (nM), HEK-TREX cells, tetracycline-induced rat P2X3 with constitutive rat P2X2; agonist 500 nM α,β-methylene-ATP.
Protocol: (§1) The assay used a calcium indicator dye (Fluo-4) that emits fluorescence, the intensity of which is related to the concentration of calcium that entered the cell when P2X3 was activated and the channel opened. Activation of hP2X3 or rat P2X3 and rat P2X2/3 (from the coexpression of rat P2X3 and rat P2×2) is elicited the by P2X3 agonist α,β methylene-ATP (Sigma M6517), and the resulting fluorescence is measured with a FLIPR II™ instrument (Molecular Devices). Compounds are tested for their ability to inhibit the agonist-induced fluorescent signal.
(§2) For the rat P2X2/3 HEK-TREX cells, induction of the rat P2X3 expression is used to generate the rat P2X2/3 channels in HEK-TREX cells and performed by addition of 1 μg/mL tetracycline (Invitrogen) 24 h prior to compounds testing to the HEK-TREX expressing the rat P2X2 constitutively. On the day of the experiment, the cells and test compounds are prepared as follows. […] After preparing the compounds, the medium is removed from the cell plates by inversion. A loading solution of 30 μL assay buffer containing 4 μM of the calcium indicator dye FLUO-4 AM (Molecular Probes F14202) is added to each well using a Multidrop (Labsystems). […] The incubation is terminated by washing the cells four times in assay buffer using a Skatron Embla (Molecular Devices), and 25 μL of assay buffer was left in each well. Cell plates are then transferred to the FLIPR. Experiments are initiated by measuring a baseline fluorescence reading for 10 seconds, followed by the addition of 12.5 μL of cpds and data sampling for a total 280 seconds. The experiments are terminated by addition of 12.5 μL of a reference agonist (500 nM α,β-methylene-ATP) or buffer, producing a final assay volume of 50 μL followed by data sampling for an additional 280 seconds.
(§3) In P2X3 antagonist experiments (human and rat assays) data are analysed as normalised maximal peak fluorescence monitored following agonist addition and calculated as percent of relative fluorescent counts from control agonist. The dose-response antagonist inhibition curves are analyzed in a 4-parameter sigmoidal fit using a non-linear curve-fitting program (XLfit version 5.0.6, ID Business Solutions Limited, Guildford, UK).

The target in assay [2] is T2, hP2X3 (human Purinergic P2X receptors subtype 3), clone B (Homo sapiens, UniProt P56373).
T2 sequence (P56373 1-397): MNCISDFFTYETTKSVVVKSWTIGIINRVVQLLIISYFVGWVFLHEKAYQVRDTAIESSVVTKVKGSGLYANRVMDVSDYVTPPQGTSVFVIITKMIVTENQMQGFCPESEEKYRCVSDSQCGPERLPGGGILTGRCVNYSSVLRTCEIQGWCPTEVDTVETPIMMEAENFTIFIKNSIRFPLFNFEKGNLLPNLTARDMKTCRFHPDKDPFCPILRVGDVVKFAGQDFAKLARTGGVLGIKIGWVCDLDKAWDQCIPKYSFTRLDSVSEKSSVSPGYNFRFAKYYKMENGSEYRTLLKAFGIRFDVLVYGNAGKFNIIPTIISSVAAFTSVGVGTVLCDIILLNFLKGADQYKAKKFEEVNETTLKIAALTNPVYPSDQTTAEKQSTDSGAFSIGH
Kind of assay: hP2X3 FLIPR calcium (Fluo-4) antagonist assay, clone B. To be noted: Human P2X3 FLIPR Clone B IC50 (nM), RLE cells expressing hP2X3 clone B (NM_002559); agonist 500 nM α,β-methylene-ATP.

Assay [3] concerns the target T3, hP2X3 (human Purinergic P2X receptors subtype 3), clone A (Homo sapiens, UniProt P56373).
T3 sequence (P56373 1-397): T2 sequence (P56373 1-397)
Kind of assay: hP2X3 FLIPR calcium (Fluo-4) antagonist assay, clone A. To be noted: Human P2X3 FLIPR Clone A Mean IC50 (nM), RLE cells expressing hP2X3 clone A (AB016608); agonist 500 nM α,β-methylene-ATP.
Protocol: as §1, §2, §3

For the compound `CC(=O)N1CCN(c2nc(N[C@@H](C)c3cnc4ccccc4c3)c3c(n2)C(=O)N(C(C)C)C3)CC1` (single isomer, unassigned) [Example 345], the IC50 in assay [1] came out at 1910 nM; in assay [2] it was 66 nM.
For `COc1ccc(CC(C)(C)Nc2nc(N3CCN(C(C)=O)CC3)nc3c2CN(C(C)C)C3=O)cc1` [Example 196, 2-(4-acetylpiperazin-1-yl)-6-isopropyl-4-(1-(4-methoxyphenyl)-2-methylpropan-2-ylamino)-5H-pyrrolo[3,4-d]pyrimidin-7(6H)-one] the same measures were 2180 nM and 90 nM.
Taken in the same sequence, the figures for `CC(=O)N1CCN(c2nc(NCc3cc(C)c4ncccc4c3)c3c(n2)C(=O)N(C(C)C)C3)CC1` [Example 247, 2-(4-acetylpiperazin-1-yl)-6-isopropyl-4-((8-methylquinolin-6-yl)methylamino)-5H-pyrrolo[3,4-d]pyrimidin-7(6H)-one] were 9070 nM and 77 nM.
Taken in the same sequence, the figures for `COc1cc(C(F)(F)F)ccc1CNc1nc(N2CCN(C(C)=O)CC2)nc2c1CN(C(C)C)C2=O` [Example 225, 2-(4-acetylpiperazin-1-yl)-6-isopropyl-4-(2-methoxy-4-(trifluoromethyl)benzylamino)-5H-pyrrolo[3,4-d]pyrimidin-7(6H)-one] were 60700 nM and 290 nM.
Regarding `CC(=O)N1CCN(c2nc(NC(C)(C)Cc3ccc(F)cc3)c3c(n2)C(=O)N(C(C)C)C3)CC1C` (stereo not drawn) [Example 138, 2-(4-Acetyl-3-methyl-piperazin-1-yl)-4-[2-(4-fluoro-phenyl)-1,1-dimethyl-ethylamino]-6-isopropyl-5,6-dihydro-pyrrolo[3,4-d]pyrimidin-7-one], the figures for the IC50 in assay [1] and in assay [2] were 16200 nM and 750 nM, respectively.
For `CCOc1ccc([C@@H](C)Nc2nc(N3CCN(C(C)=O)CC3)nc3c2CN(C(C)C)C3=O)cc1Cl` [Example 159, (R)-2-(4-acetylpiperazin-1-yl)-4-(1-(3-chloro-4-ethoxyphenyl)ethylamino)-6-isopropyl-5H-pyrrolo[3,4-d]pyrimidin-7(6H)-one] the same measures were 547 nM and 37 nM.
As to `CCN(Cc1cnc2ccccc2c1)c1nc(N2CCN(C(C)=O)CC2)nc2c1CN(C(C)C)C2=O` [Example 246, 2-(4-acetylpiperazin-1-yl)-4-(ethyl(quinolin-3-ylmethyl)amino)-6-isopropyl-5H-pyrrolo[3,4-d]pyrimidin-7(6H)-one], the half-maximal inhibitory concentration (IC50) in assay [1] turned out to be 10400 nM; in assay [2], 68 nM.
As to `COc1cc(OC(F)(F)F)ccc1CNc1nc(N2CCN(C(C)=O)CC2)nc2c1CN(C(C)C)C2=O` [Example 232, 2-(4-acetylpiperazin-1-yl)-6-isopropyl-4-(2-methoxy-4-(trifluoromethoxy)benzylamino)-5H-pyrrolo[3,4-d]pyrimidin-7(6H)-one], the concentration for half-maximal inhibition (IC50) in assay [1] worked out at 7840 nM.
Same read-out and setting: the figure for `CC(=O)N1CCN(c2nc(NC(c3ccccc3)c3ccccc3)c3c(n2)C(=O)N(C(C)C)C3)CC1` [Example 72, 2-(4-Acetyl-piperazin-1-yl)-4-(benzhydryl-amino)-6-isopropyl-5,6-dihydro-pyrrolo[3,4-d]pyrimidin-7-one] is 2110 nM.
For `CCOc1ccc(CC(C)(C)Nc2nc(N3CCN(C(C)=O)CC3)nc3c2CN(C(C)C)C3=O)cc1` [Example 198, 2-(4-acetylpiperazin-1-yl)-4-(1-(4-ethoxyphenyl)-2-methylpropan-2-ylamino)-6-isopropyl-5H-pyrrolo[3,4-d]pyrimidin-7(6H)-one], the IC50 came to 1230 nM in assay [3] and 640 nM in assay [2].
Taken in the same sequence, the figures for `CC(=O)N1CCN(c2nc3c(c(N(C)C(C)c4ccc5ncccc5c4)n2)CN(C(C)C)C3=O)CC1` (single isomer, unassigned) [Example 261, 2-(4-acetylpiperazin-1-yl)-6-isopropyl-4-(methyl(1-(quinolin-6-yl)ethyl)amino)-5H-pyrrolo[3,4-d]pyrimidin-7(6H)-one] were 71.1 nM and 64 nM.
Consider `CCOc1ccc([C@@H](CO)Nc2nc(N3CCN(C(C)=O)CC3)nc3c2CN(C(C)C)C3=O)cc1` [Example 189, (S)-2-(4-acetylpiperazin-1-yl)-4-(1-(4-ethoxyphenyl)-2-hydroxyethylamino)-6-isopropyl-5H-pyrrolo[3,4-d]pyrimidin-7(6H)-one], for which the IC50 in assay [3] was 76.6 nM; in assay [2] it was 79 nM.
Taken in the same sequence, the figures for `CCN(c1nc(N2CCN(C(C)=O)CC2)nc2c1CN(C(C)C)C2=O)C(C)c1ccc2ncccc2c1` (single isomer, unassigned) [Example 257, 2-(4-acetylpiperazin-1-yl)-4-(ethyl(1-(quinolin-6-yl)ethyl)amino)-6-isopropyl-5H-pyrrolo[3,4-d]pyrimidin-7(6H)-one] were 83.2 nM and 80 nM.
For `CCOc1ccc([C@@H](C)Nc2nc(N3CCN(C)C(=O)C3)nc3c2CN(C(C)C)C3=O)cc1F` [Example 201, (R)-4-(1-(4-ethoxy-3-fluorophenyl)ethylamino)-6-isopropyl-2-(4-methyl-3-oxopiperazin-1-yl)-5H-pyrrolo[3,4-d]pyrimidin-7(6H)-one] the same measures were 723 nM and 410 nM.
For `CC(=O)N1CCN(c2nc3c(c(N4CCCC4c4ccc(Cl)c(Cl)c4)n2)CN(C(C)C)C3=O)CC1` (stereo not drawn) [Example 297, 2-(4-acetylpiperazin-1-yl)-4-[2-(3,4-dichlorophenyl)pyrrolidin-1-yl]-6-(1-methylethyl)-5,6-dihydro-7H-pyrrolo[3,4-d]pyrimidin-7-one] the same measures were 322 nM and 300 nM.
`CC(=O)N1CCN(c2nc(N[C@H](C)c3ccc(OC4CCC4)cc3)c3c(n2)C(=O)N(C(C)C)C3)CC1` [Example 191, (R)-2-(4-acetylpiperazin-1-yl)-4-(1-(4-cyclobutoxyphenyl)ethylamino)-6-isopropyl-5H-pyrrolo[3,4-d]pyrimidin-7(6H)-one]: the figures for the IC50 in assay [3] and in assay [2] were 81.3 nM and 62 nM, respectively.
Taken in the same sequence, the figures for `CC[C@H](C)N1Cc2c(NCc3cnc4ccccc4c3)nc(N3CCN(C(C)=O)CC3)nc2C1=O` [Example 316, 2-(4-acetylpiperazin-1-yl)-6-[(1S)-1-methylpropyl]-4-[(quinolin-3-ylmethyl)amino]-5,6-dihydro-7H-pyrrolo[3,4-d]pyrimidin-7-one] were 35.5 nM and 28 nM.
`CC(=O)N1CCN(c2nc3c(c(N(C)Cc4cc5ccccc5c(C)n4)n2)CN(C(C)C)C3=O)CC1` [Example 263, 2-(4-acetylpiperazin-1-yl)-6-isopropyl-4-(methyl((1-methylisoquinolin-3-yl)methyl)amino)-5H-pyrrolo[3,4-d]pyrimidin-7(6H)-one]: the IC50 in assay [3] worked out at 85 nM; in assay [2], 94 nM.
Taken in the same sequence, the figures for `CCOc1ccc([C@@H](C)Nc2nc(N3CCN(C(C)=O)CC3)nc3c2CN([C@@H](C)CC)C3=O)cc1F` [Example 320, 2-(4-acetylpiperazin-1-yl)-4-{[(1R)-1-(4-ethoxy-3-fluorophenyl)ethyl]amino}-6-[(1S)-1-methylpropyl]-5,6-dihydro-7H-pyrrolo[3,4-d]pyrimidin-7-one] were 69.1 nM and 54 nM.

A word on the IC50: it is the concentration at which inhibition is half-maximal.
